Measurements published in US20060069132A1, “Azolecarboxamide herbicides” (priority 2004, published 2006).

How the values were obtained:
pigweed = assay: Test C pre-/postemergence herbicide test; assay type: in vivo, Amaranthus retroflexus; conditions: for Plant response rating (0 = no effect, 100 = complete control), Pigweed: 125 g ai/ha
In short: (§1)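 Greenhouse-grown plants were evaluated visually 12 to 14 days after treatment, with 100 meaning complete control and 0 no effect. Application was preemergence, or postemergence at 2 to 18 cm.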

barnyardgrass = assay: Test C flooded paddy test; assay type: in vivo, Echinochloa crus-galli
In short: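 Visual rating, 0 (no effect) to 100 (complete control), vs. controls at 12–14 d in greenhouse. Postemergence: 1–4-leaf plants, 2–18 cm. Paddy: flooded, barnyardgrass at 2-leaf stage.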

goosegrass = assay: Test C pre-/postemergence herbicide test; assay type: in vivo, Eleusine indica; conditions: for Plant response rating (0 = no effect, 100 = complete control), Goosegrass: 125 g ai/ha
In short: as §1

giant foxtail = assay: Test C pre-/postemergence herbicide test; assay type: in vivo, Setaria faberi; conditions: for Plant response rating (0 = no effect, 100 = complete control), Foxtail, Giant: 125 g ai/ha
In short: as §1

rice = assay: Test C flooded paddy test; assay type: in vivo, Oryza sativa
In short: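 Postemergence sprays applied to plants 2 to 18 cm tall (1- to 4-leaf stage); paddy species grown to 2-leaf stage under flooding. After 12 to 14 days in greenhouse, visual rating versus untreated controls on 0–100 scale (0 no effect, 100 complete control).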

lambsquarters = assay: Test C pre-/postemergence herbicide test; assay type: in vivo, Chenopodium album; conditions: for Plant response rating (0 = no effect, 100 = complete control), Lambsquarters: 125 g ai/ha
In short: as §1

[1] = 62 g ai/ha, preemergence, scale 0 to 100
[2] = 250 g ai/ha, scale 0-100, preemergence
[3] = 62 g ai/ha, scale 0 to 100 (0 no effect, 100 complete control)
[4] = 125 g ai/ha, scale 0 to 100 (0 no effect, 100 complete control)
[5] = 250 g ai/ha, scale of 0 to 100, 0 is no effect, 100 is complete control
[6] = 500 g ai/ha, visual rating after 12 to 14 days, scale 0 to 100 (0 no effect, 100 complete control)
[7] = 500 g ai/ha, scale 0 to 100 (0 no effect, 100 complete control), visual, 12 to 14 days, preemergence

Row | Compound | Plant response rating (0 = no effect, 100 = complete control), Pigweed (pigweed; preemergence) | Plant response rating (0 = no effect, 100 = complete control), Goosegrass (goosegrass; preemergence) | Plant response rating (0 = no effect, 100 = complete control), Foxtail, Giant (giant foxtail; preemergence) | Plant response rating (0 = no effect, 100 = complete control), Lambsquarters (lambsquarters; preemergence) | Plant response rating, Pigweed (pigweed; [1]) | Plant response rating, Pigweed (pigweed; [2]) | Barnyardgrass plant response rating (barnyardgrass; [3]) | Barnyardgrass plant response rating (barnyardgrass; [4]) | Barnyardgrass plant response rating (barnyardgrass; [5]) | Plant response rating, Barnyardgrass (barnyardgrass; [6]) | Plant response rating, Goosegrass (goosegrass; [1]) | Plant response rating, Goosegrass (goosegrass; [2]) | Plant response rating, Foxtail, Giant (giant foxtail; [1]) | Plant response rating, Foxtail, Giant (giant foxtail; [2]) | Rice plant response rating (rice; 62 g ai/ha, scale 0 to 100) | Rice plant response rating (rice; [4]) | Rice plant response rating (rice; [5]) | Plant response rating, Rice (rice; [6]) | Plant response rating, Lambsquarters (lambsquarters; [1]) | Plant response rating, Lambsquarters (lambsquarters; [2]) | further results
1 | CCn1nc2c(c1C(=O)Nc1cc(C(=O)N(C)C)ccc1F)CCC2(C)C [Compound 352, N-[5-[(dimethylamino)carbonyl]-2-fluorophenyl]-2-ethyl-2,4,5,6-tetrahydro-6,6-dimethyl-3-cyclopentapyrazolecarboxamide] | 85 | 85 | 60 | 100 |  |  |  |  |  |  |  |  |  |  |  |  |  |  |  |  | pest or weed control at 62 g/ha (pigweed; Amaranthus retroflexus, pre-emergence, 62 g ai/ha, preemergence, scale 0 to 100, read-out: Plant response rating, Pigweed): 40%; pest or weed control at 250 g/ha (pigweed; Amaranthus retroflexus, pre-emergence, 250 g ai/ha, scale 0-100, read-out: Plant response rating, Pigweed): 100%; pest or weed control at 500 g/ha (pigweed; Amaranthus retroflexus, pre-emergence, 500 g ai/ha, scale 0 to 100 (0 no effect, 100 complete control), visual, 12 to 14 days, read-out: Plant response rating, Pigweed): 100%; pest or weed control at 62 g/ha (barnyardgrass; Echinochloa crus-galli, 62 g ai/ha, scale 0 to 100 (0 no effect, 100 complete control), read-out: Barnyardgrass plant response rating): 25%; pest or weed control at 125 g/ha (barnyardgrass; Echinochloa crus-galli, 125 g ai/ha, scale 0 to 100 (0 no effect, 100 complete control), read-out: Barnyardgrass plant response rating): 45%; pest or weed control at 250 g/ha (barnyardgrass; Echinochloa crus-galli, 250 g ai/ha, scale of 0 to 100, 0 is no effect, 100 is complete control, read-out: Barnyardgrass plant response rating): 65%; pest or weed control at 500 g/ha (barnyardgrass; Echinochloa crus-galli, 500 g ai/ha, visual rating after 12 to 14 days, scale 0 to 100 (0 no effect, 100 complete control), read-out: Plant response rating, Barnyardgrass): 90%; pest or weed control at 62 g/ha (goosegrass; Eleusine indica, pre-emergence, 312 h, 62 g ai/ha, preemergence, scale 0 to 100, read-out: Plant response rating, Goosegrass): 80%; pest or weed control at 250 g/ha (goosegrass; Eleusine indica, pre-emergence, 312 h, 250 g ai/ha, scale 0-100, read-out: Plant response rating, Goosegrass): 100%; pest or weed control at 500 g/ha (goosegrass; Eleusine indica, pre-emergence, 312 h, 500 g ai/ha, scale 0 to 100 (0 no effect, 100 complete control), visual, 12 to 14 days, read-out: Plant response rating, Goosegrass): 100%; pest or weed control at 62 g/ha (giant foxtail; Setaria faberi, pre-emergence, 312 h, 62 g ai/ha, preemergence, scale 0 to 100, read-out: Plant response rating, Foxtail, Giant): 5%; pest or weed control at 250 g/ha (giant foxtail; Setaria faberi, pre-emergence, 312 h, 250 g ai/ha, scale 0-100, read-out: Plant response rating, Foxtail, Giant): 100%; pest or weed control at 500 g/ha (giant foxtail; Setaria faberi, pre-emergence, 312 h, 500 g ai/ha, scale 0 to 100 (0 no effect, 100 complete control), visual, 12 to 14 days, read-out: Plant response rating, Foxtail, Giant): 100%; plant injury at 62 g/ha (rice; Oryza sativa, 62 g ai/ha, scale 0 to 100, read-out: Rice plant response rating): 20%; plant injury at 125 g/ha (rice; Oryza sativa, 125 g ai/ha, scale 0 to 100 (0 no effect, 100 complete control), read-out: Rice plant response rating): 45%; plant injury at 250 g/ha (rice; Oryza sativa, 250 g ai/ha, scale of 0 to 100, 0 is no effect, 100 is complete control, read-out: Rice plant response rating): 60%; plant injury at 500 g/ha (rice; Oryza sativa, 500 g ai/ha, visual rating after 12 to 14 days, scale 0 to 100 (0 no effect, 100 complete control), read-out: Plant response rating, Rice): 70%; pest or weed control at 62 g/ha (lambsquarters; Chenopodium album, pre-emergence, 62 g ai/ha, preemergence, scale 0 to 100, read-out: Plant response rating, Lambsquarters): 85%; pest or weed control at 250 g/ha (lambsquarters; Chenopodium album, pre-emergence, 250 g ai/ha, scale 0-100, read-out: Plant response rating, Lambsquarters): 100%; pest or weed control at 500 g/ha (lambsquarters; Chenopodium album, pre-emergence, 500 g ai/ha, scale 0 to 100 (0 no effect, 100 complete control), visual, 12 to 14 days, read-out: Plant response rating, Lambsquarters): 100%
2 | CCc1nn(C(C)(C)C)nc1C(=O)Nc1cccc(C(=O)N(C)CC)c1 [Compound 384] | 100 | 95 | 100 | 100 | 100 | 100 | 65 | 75 | 90 | 95 | 85 | 100 | 95 | 100 | 60 | 65 | 80 | 80 | 100 | 100 | 
3 | CCNC(=O)c1cccc(NC(=O)c2nn(C(C)(C)C)nc2C)c1 [Compound 392] | 100 | 95 | 90 | 100 | 100 | 100 | 15 | 45 | 80 | 90 | 85 | 95 | 65 | 100 | 50 | 60 | 75 | 75 | 100 | 100 | Plant response rating, Pigweed (pigweed; [7]): 100; Plant response rating, Goosegrass (goosegrass; [7]): 98; Plant response rating, Foxtail, Giant (giant foxtail; [7]): 100; Plant response rating, Lambsquarters (lambsquarters; [7]): 100
